Laboratory results published in patent publication US11589590B2, “Antimicrobial coatings and methods of making and using thereof” (GEORGIA TECH RESEARCH CORPORATION, priority 2016, dated 2023).
Blank lines part the entries; values can stand above or below the compound they belong to.

Legend:
[1] = Fragmentation of pyridine adducts in deuterated aqueous buffer followed by 1H NMR; format: physicochemical
Description: The fragmentation of cationic adducts was followed by ^1H NMR in deuterated buffer, with the relative concentration of each species established by integration of unique resonances. Each adduct in Table 3 and Table 4 was thus examined in three independent runs. […]

CHO-K1 cells = format: cell-based; conditions: for concentrations at which nontoxic: Chinese hamster
Procedure: Approximately 1×10^4 CHO-K1 cells/well were plated in a 96-well plate in 100 μL of complete growth media, and adhered overnight at 37° C. The media was then replaced by 100 μL of polymer or monomer in serum-free media at the indicated concentration. Full media was replenished after 4 or 24 h. Viability was measured by MTT assay, with non-treated cells assigned as 100% viability. The results are plotted in FIGS. 11A-11D and 12A-12H.

[2] = pseudo first order fragmentation at 50° C., deuterated buffer
[3] = pseudo first order fragmentation at 37° C.

SMILES: COC(=O)c1ccc[n+](C2CCC3SC2CCC3[n+]2cccc(C(=O)OC)c2)c1.O=[N+]([O-])[O-].O=[N+]([O-])[O-] (centres unmarked) [Compound 5b, 2,6-di-3-methoxycarbonylpyridinium-9-thiabicyclo[3.3.1]nonane dinitrate]
krel ([1]; 50° C., relative to 5e = 1.00): 1.86
kfrag [1, 2]: (3.03 ± 0.38) × 10^−2 h^−1

SMILES: COC(=O)c1cc[n+](C2CCC3SC2CCC3[n+]2ccc(C(=O)OC)cc2)cc1.O=[N+]([O-])[O-].O=[N+]([O-])[O-] (centres unmarked) [Compound 5c, 2,6-di-4-methoxycarbonylpyridinium-9-thiabicyclo[3.3.1]nonane dinitrate]
krel ([1]; 37° C., relative to 5i = 1): 0.3
krel ([1]; 50° C., relative to 5e = 1.00): 2.25
kfrag [1, 3]: (0.16 ± 0.01) × 10^−2 h^−1
kfrag [1, 2]: (3.66 ± 0.33) × 10^−2 h^−1
concentration up to which no effect (toxicity) (CHO-K1 cells): ≥ 500 µM

SMILES: NC(=O)c1ccc[n+](C2CCC3SC2CCC3[n+]2cccc(C(N)=O)c2)c1.O=[N+]([O-])[O-].O=[N+]([O-])[O-] (centres unmarked) [Compound 5d, 2,6-di-3-carbamylpyridinium-9-thiabicyclo[3.3.1]nonane dinitrate]
krel ([1]; 50° C., relative to 5e = 1.00): 1.95
kfrag [1, 2]: (3.18 ± 0.32) ×10^−2 h^−1

SMILES: NC(=O)c1cc[n+](C2CCC3SC2CCC3[n+]2ccc(C(N)=O)cc2)cc1.O=[N+]([O-])[O-].O=[N+]([O-])[O-] (centres unmarked) [Compound 5e, 2,6-di-4-carbamylpyridinium-9-thiabicyclo[3.3.1]nonane dinitrate]
krel ([1]; 50° C., relative to 5e = 1.00): 1.00
kfrag [1, 2]: (1.62 ± 0.10) ×10^−2 h^−1

SMILES: Brc1ccc[n+](C2CCC3SC2CCC3[n+]2cccc(Br)c2)c1.O=[N+]([O-])[O-].O=[N+]([O-])[O-] (centres unmarked) [Compound 5f, 2,6-di-3-bromopyridinium-9-thiabicyclo[3.3.1]nonane dinitrate]
krel ([1]; 50° C., relative to 5e = 1.00): 4.05
kfrag [1, 2]: (6.59 ± 0.58) × 10^−2 h^−1

SMILES: FC(F)(F)c1ccc[n+](C2CCC3SC2CCC3[n+]2cccc(C(F)(F)F)c2)c1.O=[N+]([O-])[O-].O=[N+]([O-])[O-] (centres unmarked) [Compound 5g, 2,6-di-3-trifluoromethylpyridinium-9-thiabicyclo[3.3.1]nonane dinitrate]
krel ([1]; 37° C., relative to 5i = 1): 11
krel ([1]; 50° C., relative to 5e = 1.00): 46.2
kfrag [1, 3]: (5.87 ± 0.71) × 10^−2 h^−1
kfrag [1, 2]: (74.8 ± 5.4) × 10^−2 h^−1

SMILES: N#Cc1ccc[n+](C2CCC3SC2CCC3[n+]2cccc(C#N)c2)c1.O=[N+]([O-])[O-].O=[N+]([O-])[O-] (centres unmarked) [Compound 5h, 2,6-di-3-cyanopyridinium-9-thiabicyclo[3.3.1]nonane dinitrate]
krel ([1]; 37° C., relative to 5i = 1): 2.1
krel ([1]; 50° C., relative to 5e = 1.00): 6.68
kfrag [1, 3]: (1.14 ± 0.16) × 10^−2 h^−1
kfrag [1, 2]: (10.8 ± 0.98) × 10^−2 h^−1

SMILES: COc1cc(Br)c[n+](C2CCC3SC2CCC3[n+]2cc(Br)cc(OC)c2)c1.O=[N+]([O-])[O-].O=[N+]([O-])[O-] (centres unmarked) [Compound 5i, 2,6-di-3-bromo-5-methoxylpyridinium-9-thiabicyclo[3.3.1]nonane dinitrate]
krel ([1]; 37° C., relative to 5i = 1): 1
krel ([1]; 50° C., relative to 5e = 1.00): 4.64
kfrag [1, 3]: (0.55 ± 0.04) × 10^−2 h^−1
kfrag [1, 2]: (7.51 ± 0.53) × 10^−2 h^−1
concentration up to which no effect (toxicity) (CHO-K1 cells): ≥ 500 µM

krel ([1]; 37° C., relative to 5i = 1): 17
kfrag [1, 3]: (9.34 ± 0.87) × 10^−2 h^−1
SMILES: NC(=O)c1cc(Br)c[n+](C2CCC3SC2CCC3[n+]2cc(Br)cc(C(N)=O)c2)c1.O=S(=O)([O-])C(F)(F)F.O=S(=O)([O-])C(F)(F)F (centres unmarked) [Compound 5j, 2,6-di-3-bromo-5-carbamylpyridinium-9-thiabicyclo[3.3.1]nonane ditriflate]

krel ([1]; 37° C., relative to 5i = 1): 22
kfrag [1, 3]: (11.9 ± 1.13) × 10^−2 h^−1
SMILES: COC(=O)c1cc(C(=O)OC)c[n+](C2CCC3SC2CCC3[n+]2cc(C(=O)OC)cc(C(=O)OC)c2)c1.O=S(=O)([O-])C(F)(F)F.O=S(=O)([O-])C(F)(F)F (centres unmarked) [Compound 5k, 2,6-di-3,5-dimethoxycarbonylpyridinium-9-thiabicyclo[3.3.1]nonane ditriflate]

krel ([1]; 37° C., relative to 5i = 1): 20
kfrag [1, 3]: (10.9 ± 1.81) × 10^−2 h^−1
SMILES: COC(=O)c1cc(Br)c[n+](C2CCC3SC2CCC3[n+]2cc(Br)cc(C(=O)OC)c2)c1.O=S(=O)([O-])C(F)(F)F.O=S(=O)([O-])C(F)(F)F (centres unmarked) [Compound 5l, 2,6-di-3-bromo-5-methoxycarbonylpyridinium-9-thiabicyclo[3.3.1]nonane ditriflate]

SMILES: c1cc(CCCc2ccncc2)ccn1 [monomer 2a]
concentrations at which nontoxic (CHO-K1 cells): below 500 μM

SMILES: O=C(OCCCOC(=O)c1ccncc1)c1ccncc1 [monomer 2c]
concentrations at which nontoxic (CHO-K1 cells): below 500 μM

SMILES: Brc1cncc(OCCCOc2cncc(Br)c2)c1 [monomer 2i, 1,3-bis((5-bromopyridin-3-yl)oxy)propane]
concentrations at which nontoxic (CHO-K1 cells): below 500 μM
